# Biological target: T1, TRAF6WTStrepII-Ubc13FH interaction (Homo sapiens, UniProt Q9Y4K3)
# T1 construct: RING-Zincfinger1 (RZ1) domain (residues 50-159) of human TRAF6 wildtype; made in house; host or cells: E. coli BL21 codon plus RIPL
# T1 sequence (Q9Y4K3 with tags, fused parts or gaps): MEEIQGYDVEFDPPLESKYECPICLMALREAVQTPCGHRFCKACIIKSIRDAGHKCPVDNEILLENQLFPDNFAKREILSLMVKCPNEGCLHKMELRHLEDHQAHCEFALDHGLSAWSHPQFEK
# Assay: ALPHAScreen TRAF6-Ubc13 interaction assay
# Assay type: binding
# Settings: TRAF6 100 nM, Ubc13FH 75 nM; class symbols; read-out: IC50 Alphascreen (inhibition of TRAF6-UBC13 interaction)
# Description: In order to identify small molecules that specifically target the RZ1 domain of TRAF6 and thereby prevent its binding to Ubc13, the ALPHAScreen technology (PerkinElmer) was chosen to detect TRAF6WTStrepII-Ubc13FH interaction in High-Throughput-Screenings as well as Structure Activity Relationship (SAR) analysis.
# For performance of an automated ALPHAScreen assay, all following components were pre-diluted in ALPHAScreen buffer (1×PBS, 0.5% BSA, 0.01% Tween-20). First, the TRAF6 protein (end concentration 100 nM, 30 μL volume) was added to 384-well-opti-plates involving the MultiFlo dispensing system (BioTek) followed by transfer of the compounds via the Sciclone G3 transfer station (PerkinElmer). After addition of Ubc13FH (end concentration 75 nM, 10 μL volume) with the MultiFlo system and incubation for one hour at room temperature, both beads (Strep-Tactin Alpha Donor beads and Nickel-Chelate acceptor beads; end concentrations 4 μg each, 10 μL volume each) were mixed and added using the MultiFlo system in subdued light. Read-out of the plates occurred after another hour of incubation at room temperature. Statistical parameters including the coefficient of variation, Z′ factor and signal window were calculated to determine the quality of the HTS campaign. To evaluate the efficacy of the compounds, ALPHAScreen units of compound-treated samples were referred to DMSO control treated samples. Thereby, the TRAF6D57K mutant served as the control for minimum signal and was included on every plate of the screening. Compounds that inhibited TRAF6WTStrepII-Ubc13FH by more than 25% were considered as actives. After elimination of ALPHAScreen frequent hitter compounds and His-tag frequent hitters (Schorpp, K., I. Rothenaigner, E. Salmina, et al., Identification of Small-Molecule Frequent Hitters from AlphaScreen High-Throughput Screens. J Biomol Screen, 2014. 19(5): p. 715-26), 178 compounds were defined as primary hits and were subsequently tested in five-point serial dilution assays (2.5-40 μM) in TRAF6WTStrepII-Ubc13FH ALPHAScreen experiments. Only compounds with dose-dependent effects on TRAF6WTStrepII-Ubc13FH (n=27) were taken for further research. For analog testing, all compounds were analyzed in ten-point titration (0.2-100 μM) in TRAF6WTStrepII-Ubc13FH ALPHAScreen experiments. In parallel, the compounds were tested in the ALPHAScreen TruHits Kit (PerkinElmer) to rule out unspecific interference with the ALPHAScreen technology.
SMILES,IC50 [µM],inhibition at 100 µM [%]
COC(=O)c1ccc(CN2CCN(C(=O)CCc3c(C)nn(-c4ccc5nnc(C)n5n4)c3C)CC2)cc1 [Example 96],≤ 3,
Cc1nn(-c2ccc3nnc(C)n3n2)c(C)c1CCC(=O)N1CCN(Cc2ccc(C(=O)O)cc2)CC1 [Example 97],≤ 3,
COC(=O)c1cccc(CN2CCN(C(=O)CCc3c(C)nn(-c4ccc5nnc(C)n5n4)c3C)CC2)c1 [Example 98],≤ 10,
Cc1nn(-c2ccc3nnc(C)n3n2)c(C)c1CCC(=O)N1CCN(Cc2cccc(C(=O)O)c2)CC1 [Example 99],≤ 3,
Cc1nn(-c2ccc3nnc(C)n3n2)c(C)c1CCC(=O)N1CCN(Cc2cccc(C(N)=O)c2)CC1 [Example 100],,≥ 30
CNC(=O)c1cccc(CN2CCN(C(=O)CCc3c(C)nn(-c4ccc5nnc(C)n5n4)c3C)CC2)c1 [Example 101],≤ 30,
Cc1nn(-c2ccc3nnc(C)n3n2)c(C)c1CCC(=O)N1CCNC(Cc2ccccc2)C1 (centres unmarked) [Example 102],≤ 30,
Cc1nn(-c2ccc3nnc(C)n3n2)c(C)c1CCC(=O)N1CCCC(Cc2ccccc2)C1 (centres unmarked) [Example 103],,≥ 30
Cc1nn(-c2ccc3nnc(C)n3c2)c(C)c1CCC(=O)N1CCC(CCc2ccccc2)CC1 [Example 104],,≥ 30
Cc1nn(-c2ccc3nnc(C)n3c2)c(C)c1CCC(=O)N1CCN(Cc2ccccc2)CC1 [Example 105],,≥ 30
Cc1nn(-c2ccc3nnc(C)n3c2)c(C)c1CCC(=O)N1CCCC(Cc2ccccc2)C1 (centres unmarked) [Example 106],,≥ 30
Cc1nn(-c2ccc3nnc(C)n3c2)c(C)c1CCC(=O)N1CCC(Cc2ccccc2)C1 (centres unmarked) [Example 107],,≥ 30
CC(=O)c1ccc(CN2CCN(C(=O)CCc3c(C)nn(-c4ccc5nnc(C)n5n4)c3C)CC2)cc1 [Example 108],≤ 10,
Cc1nn(-c2ccc3nnc(C)n3n2)c(C)c1CCC(=O)N1CCN(Cc2ccc(C#N)cc2)CC1 [Example 109],≤ 30,
Cc1nn(-c2ccc3nnc(C)n3n2)c(C)c1CCC(=O)N1CCN(Cc2ccc(C(F)(F)F)cc2)CC1 [Example 110],≤ 30,
Cc1nn(-c2ccc3nnc(C)n3n2)c(C)c1CCC(=O)N1CCN(Cc2ccc(I)cc2)CC1 [Example 111],≤ 30,
CC(=O)Nc1ccc(CN2CCN(C(=O)CCc3c(C)nn(-c4ccc5nnc(C)n5n4)c3C)CC2)cc1 [Example 112],≤ 10,
Cc1nn(-c2ccc3nnc(C)n3n2)c(C)c1CCC(=O)N1CCN(Cc2ccc(-c3ccccc3)cc2)CC1 [Example 113],≤ 10,
Cc1nn(-c2ccc3nnc(C)n3n2)c(C)c1CCC(=O)N1CCN(Cc2ccc(N(C)C)cc2)CC1 [Example 114],≤ 10,
Cc1nn(-c2ccc3nnc(C)n3n2)c(C)c1CCC(=O)N1CCN(Cc2ccc([N+](=O)[O-])cc2)CC1 [Example 115],≤ 3,

# Now from value to compound:
IC50 [µM],inhibition at 100 µM [%],SMILES
≤ 3,,Cc1nn(-c2ccc3nnc(C)n3n2)c(C)c1CCC(=O)N1CCN(Cc2ccc(S(C)(=O)=O)cc2)CC1 [Example 116]
≤ 10,,Cc1nn(-c2ccc3nnc(C)n3n2)c(C)c1CCC(=O)N1CCN(Cc2ccc(NS(C)(=O)=O)cc2)CC1 [Example 117]
≤ 10,,Cc1nn(-c2ccc3nnc(C)n3n2)c(C)c1CCC(=O)N1CCN(Cc2ccc(C(N)=O)cc2)CC1 [Example 118]
≤ 3,,Cc1nn(-c2ccc3nnc(C)n3n2)c(C)c1CCC(=O)N1CCC(C)(Cc2ccccc2)C1 (centres unmarked) [Example 119]
≤ 3,,Cc1cc(C(=O)O)ccc1CN1CCN(C(=O)CCc2c(C)nn(-c3ccc4nnc(C)n4n3)c2C)CC1 [Example 121]
≤ 3,,Cc1cc(CN2CCN(C(=O)CCc3c(C)nn(-c4ccc5nnc(C)n5n4)c3C)CC2)ccc1[N+](=O)[O-] [Example 122]
≤ 3,,Cc1nn(-c2ccc3nnc(C)n3n2)c(C)c1CCC(=O)N1CCN(Cc2ccc(O)c(Cl)c2)CC1 [Example 123]
≤ 3,,CC(=O)c1cccc(CN2CCN(C(=O)CCc3c(C)nn(-c4ccc5nnc(C)n5n4)c3C)CC2)c1 [Example 125]
≤ 3,,Cc1nn(-c2ccc3nnc(C)n3n2)c(C)c1CCC(=O)N1CCN(Cc2cccc(C#N)c2)CC1 [Example 126]

# — patent US12240854B2, “TRAF 6 inhibitors” (Helmholtz Zentrum München - Deutsches Forschungszentrum für …, priority 2018, dated 2025)
